In ChEMBL document CHEMBL1136402, “Characterization of HERG potassium channel inhibition using CoMSiA 3D QSAR and homology modeling approaches” (Bioorg Med Chem Lett, 2003):

What follows are compounds tested against Voltage-gated inwardly rectifying potassium channel KCNH2 (Homo sapiens, UniProt Q12809) (assay: Inhibition of K+ channel activity in CHO cells expressing HERG Kv11.1).
Sequence of Voltage-gated inwardly rectifying potassium channel KCNH2 (Q12809 whole entry): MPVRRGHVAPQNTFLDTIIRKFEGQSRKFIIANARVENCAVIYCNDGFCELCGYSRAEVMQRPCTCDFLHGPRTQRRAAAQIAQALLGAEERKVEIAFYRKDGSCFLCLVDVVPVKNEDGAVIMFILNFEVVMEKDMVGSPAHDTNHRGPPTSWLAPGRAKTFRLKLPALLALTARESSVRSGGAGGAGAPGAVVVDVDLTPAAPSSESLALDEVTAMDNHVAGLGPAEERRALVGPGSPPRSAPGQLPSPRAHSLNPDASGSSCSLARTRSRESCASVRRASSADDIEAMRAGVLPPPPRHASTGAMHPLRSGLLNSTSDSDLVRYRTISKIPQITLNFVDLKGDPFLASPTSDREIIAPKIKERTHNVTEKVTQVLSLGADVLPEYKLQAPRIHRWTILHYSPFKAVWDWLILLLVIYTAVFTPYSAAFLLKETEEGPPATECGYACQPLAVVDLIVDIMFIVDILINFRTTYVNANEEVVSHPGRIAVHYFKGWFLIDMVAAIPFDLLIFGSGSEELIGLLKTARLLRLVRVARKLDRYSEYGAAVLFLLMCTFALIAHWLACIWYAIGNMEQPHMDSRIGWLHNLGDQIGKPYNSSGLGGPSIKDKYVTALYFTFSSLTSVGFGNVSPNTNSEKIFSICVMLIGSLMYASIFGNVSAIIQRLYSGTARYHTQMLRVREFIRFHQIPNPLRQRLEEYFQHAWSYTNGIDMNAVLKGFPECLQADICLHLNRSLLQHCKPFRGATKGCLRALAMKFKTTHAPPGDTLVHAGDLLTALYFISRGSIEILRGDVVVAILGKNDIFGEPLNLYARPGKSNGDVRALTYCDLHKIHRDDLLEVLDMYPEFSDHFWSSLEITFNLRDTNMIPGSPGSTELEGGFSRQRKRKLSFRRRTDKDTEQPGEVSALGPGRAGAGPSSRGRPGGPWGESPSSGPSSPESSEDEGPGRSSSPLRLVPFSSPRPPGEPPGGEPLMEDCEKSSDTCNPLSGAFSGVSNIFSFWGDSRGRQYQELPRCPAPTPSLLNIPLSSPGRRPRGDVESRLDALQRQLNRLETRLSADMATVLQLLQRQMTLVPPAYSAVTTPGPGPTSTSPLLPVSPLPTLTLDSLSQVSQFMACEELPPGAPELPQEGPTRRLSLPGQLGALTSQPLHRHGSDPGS
In the case of `Fc1ccc(-n2cc(C3CCN(CCN4CCN=C4S)CC3)c3ccccc32)cc1`, the IC50 is reported as 0.0062 µM.
Work on `Fc1ccc(-n2cc(C3CCNCC3)c3cc(Cl)ccc32)cc1` yielded an IC50 of 0.204 µM.
`CC(O)c1cn(-c2ccc(F)cc2)c2ccc(Cl)cc12` (stereo not given) was tested, and the IC50 was 4.55 µM.
Compound `CC(C)(C)c1ccc2c(ccn2-c2ccc(F)cc2)c1` has an IC50 greater than 10 µM.
With `O=C1NCCN1CCN1CC=C(c2cn(-c3ccc(F)cc3)c3ccc(Cl)cc23)CC1` the IC50 was 0.01 µM.
With `CCCc1cn(-c2ccc(F)cc2)c2ccc(Cl)cc12` the IC50 was 26 µM.
`CCc1cn(-c2ccc(F)cc2)c2ccc(Cl)cc12` showed an IC50 of 3.5 µM.
In the case of `CC(=O)c1cn(-c2ccc(F)cc2)c2ccc(Cl)cc12`, the IC50 is reported as greater than 10 µM.
Work on `O=C1NCCN1CCN1CCC(c2cn(C3CCCCC3)c3ccc(Cl)cc23)CC1` yielded an IC50 of 0.137 µM.
`CCC(=O)c1cn(-c2ccc(F)cc2)c2ccc(Cl)cc12` was tested, and the IC50 was 1.95 µM.
With `CC(C)c1cn(-c2ccc(F)cc2)c2ccc(Cl)cc12` the IC50 was greater than 10 µM.
For `O=C1NCCN1CCN1CCC(C2CN(c3ccc(F)cc3)c3ccccc32)CC1` (stereo not given), the IC50 was 0.0235 µM.
Compound `CCC(O)c1cn(-c2ccc(F)cc2)c2ccc(Cl)cc12` (stereo not given) has an IC50 of 2.2 µM.
In the case of `O=C1NCCN1CCN1CCC(c2cn(-c3ccc(F)cc3)c3ccccc23)CC1`, the IC50 is reported as 0.007 µM.
Work on `CCC(O)(CC)c1cn(-c2ccc(F)cc2)c2ccc(Cl)cc12` yielded an IC50 of 15.7 µM.
